Consider 18 molecules from paper PMC10714334, “Developing multispecies quorum-sensing modulators based on the Streptococcus mitis competence-stimulating peptide” (The Journal of Biological Chemistry, 2023).

Test [1] addresses S. mitis ComD-2 receptor. The experiment in a line: luminescence reporter competitive inhibition assay (comX expression). In kind it is cell-based, Streptococcus mitis. Particulars: same reporter strain; competition against 1 μM native S. mitis-CSP-2; 30 min at 37 °C; triplicate on three separate days. As to the method: As a positive control, 2 μl of S. mitis-CSP-2 and 2 μl of DMSO were added to the same well in triplicate. As a negative control, 4 μl of DMSO was added in triplicate. Then, 2 μl of 15 mg/ml D-luciferin in distilled water was added to each experimental or control well, after which 194 μl of bacteria was added, and the plate was incubated for 30 min at 37 °C. Following incubation, the A600 and luminescence of each experimental well were measured. Results were reported as percent activation, which is the ratio between the luminescence (presented as relative luminescence units, RLU/A600) of the analog and that of the positive control. […] GraphPad Prism was used to calculate the IC50 values, which are the concentration of inhibitor where the response (or binding) is reduced by half. Experiments were performed in triplicate on three separate days.
Antagonism assays were performed at 10 μM concentration of peptides against 1 µM concentration of S. mitis-CSP-2. S. mitis-CSP-2 (1 µM) was used as the positive control (100%) while DMSO as the negative control (0%). For all figures, comX expression is presented as relative luminescence units (RLU) divided by measured cultural optical density (OD). Percent (%) ComD activation was measured by normalizing the RLU/OD value obtained for each peptide to that of the native S. mitis-CSP-2. The results are averages from three replicates and representative of three independent experiments. Error bars represent the standard error of the mean of nine values.
Figure S-8. Primary antagonism screening assay data for t he S. mitis-CSP-2 alanine scan and D-amino acid […]
determine its IC50 value.
Figure S-9. Primary antagonism screening assay data for t he S. mitis-CSP-2 truncated analogs . S. mitis- […]

The target of test [2] is S. mitis ComD-2 receptor. In words: luminescence reporter activation assay (comX expression). In kind it is cell-based, Streptococcus mitis. The conditions noted are these: for pEC50: S. mitis luciferase reporter strain ATCC49456 PcomX luc::Spc, 30 min at 37 °C, triplicate on three separate days. The protocol:
The ability of synthetic S. mitis-CSP-2 analogs to activate the expression of S. mitis comX was determined using the constructed S. mitis luciferase reporter strain. First, bacteria from the S. mitis luciferase reporter strain freezer stock were streaked onto a Todd-Hewitt broth supplemented with 0.5% yeast extract (THY) agar plate containing 5% horse serum and spectinomycin at a final concentration of 200 μg/ml. The plate was incubated overnight in a CO2 incubator (37 °C with 5% CO2). Fresh colonies were transferred to Tryptic soy broth supplemented with spectinomycin at a final concentration of 200 μg/ml, and the culture was incubated at 37 °C in a 5% CO2-supplemented atmosphere and grown overnight (16 h) until the culture reached an absorbance at 600 nm (optical density at 600 nm [A600]) of 0.45. Overnight cultures of the S. mitis reporter strain at A600 0.45 were diluted 1:10 in Tryptic soy broth and the liquid cultures were incubated in a CO2 incubator for 30 to 45 min, until the bacteria reached early exponential stage (A600 ∼ 0.2) as determined by using a plate reader. During incubation, clear-bottom white 96-well microtiter plates were prepared for the activation assays. An initial activation screening was performed at a high peptide concentration (10,000 nM) for all the S. mitis-CSP-2 analogs (Figs. S1–S7). For each experimental sample, a total of 2 μl of a 1 mM CSP stock solution in dimethyl sulfoxide (DMSO) was added in triplicate to the clear-bottom white 96-well microtiter plate. A total of 2 μl of DMSO was added in triplicate and served as the negative control, and 2 μl of a 1 mM stock of native S. mitis-CSP-2 was added in triplicate as a positive control. In the dark, 2 μl of a 15 mg/ml D-luciferin stock in distilled water was added to each well. Following the addition of synthetic CSPs and D-luciferin, 196 μl of the diluted bacterial culture was added to each well, and the plate was incubated for 30 min at 37 °C. Following incubation, the A600 and luminescence of each experimental well were measured. Results were reported as percent activation, which is the ratio between the luminescence (presented as relative luminescence units, RLU/A600) of the analog and that of the positive control. […] EC50 values, the concentration of the peptide to achieve a half maximal response, for each activator were calculated using GraphPad Prism (https://www.graphpad.com/). Experiments were performed in triplicate on three separate days.
Primary reporter gene assay data
Agonism assays were performed at a 10 µM concentration of synthetic CSP. S. mitis-CSP-2 was used as the positive control (100%) while DMSO as the negative control (0%). For all figures, comX expression is presented as relative luminescence units (RLU) divided by measured cultural optical density (OD). Percent (%) ComD activation was measured by normalizing the RLU/OD value obtained for each peptide to that of the native S. mitis-CSP-2. The results are averages from three replicates and representative of three independent experiments. Error bars represent the standard error of the mean of nine values.
Figure S-1. Primary agonism screening assay data for the S. mitis-CSP-2 alanine scan analogs. Peptides […]
(1 picture or pasted object on this page, not shown here)

The target in test [3] is pneumococcus ComD2 receptor. The conditions noted are these: read-out: EC50, S. pneumoniae ComD2; cited from earlier work. An excerpt: (§1) Table 5 EC50 or IC50 values of select Streptococcus mitis-CSP-2–based pneumococcal QS modulators against the pneumococcus ComD1 and ComD2 and the S. mitis ComD-2 receptors ^a | column: Streptococcus pneumoniae ^b / ComD2 / EC50 or IC50∗ (nM) || In our previous work, we utilized the S. mitis-CSP-2 scaffold to develop analogs capable of modulating the two pneumococcal ComD receptors at low nanomolar concentrations ([2]). We wanted to evaluate whether the optimization of the S. mitis-CSP-2 scaffold to the pneumococcus ComD receptors affected the ability of the modified analogs to interact with the S. mitis ComD-2 receptor.

Test [4] deals with pneumococcus ComD1 receptor. The conditions noted are these: read-out: EC50, S. pneumoniae ComD1; cited from earlier work.
Excerpt: as §1, with “/ ComD1” for “/ ComD2”

As usually defined, the pIC50 is the negative decadic logarithm of the IC50, by convention in mol/L. High values mean a low IC50, low ones a high IC50. By pEC50 is commonly meant the EC50 on a negative log10 scale, so that one unit is a factor of ten.

pEC50, pIC50: −log10 of the molar value. Non-standard residues stand in square brackets, D forms with d. Residues, ends and D or L forms follow the SMILES beside them. No end group written: not given here.

At S. mitis ComD-2 receptor [1], `CC[C@H](C)[C@H](NC(=O)[C@H](C)N)C(=O)N[C@@H](CCCNC(=N)N)C(=O)N[C@@H](CCC(N)=O)C(=O)N[C@H](C(=O)N[C@@H](Cc1c[nH]cn1)C(=O)N[C@@H](CC(N)=O)C(=O)N[C@H](C(=O)N[C@@H](Cc1ccccc1)C(=O)N[C@H](Cc1ccccc1)C(=O)N[C@H](CC(N)=O)C(=O)N[C@@H](Cc1ccccc1)C(=O)N[C@@H](Cc1ccccc1)C(=O)N[C@@H](CCCCN)C(=O)N[C@@H](CCCNC(=N)N)C(=O)N[C@@H](CCCNC(=N)N)C(=O)O)[C@@H](C)CC)[C@@H](C)O` [S. mitis-CSP-2-E1Af10n11] (H-AIRQTHNIF[dF][dN]FFKRR-OH; N-terminus and C-terminus assumed) gave a pIC50 of less than 6.00.
On S. mitis ComD-2 receptor [2], `CC[C@H](C)[C@H](NC(=O)[C@H](CC(N)=O)NC(=O)[C@@H](Cc1c[nH]cn1)NC(=O)[C@@H](NC(=O)[C@H](CCC(N)=O)NC(=O)[C@H](CCCNC(=N)N)NC(=O)[C@@H](NC(=O)[C@@H](N)CCC(=O)O)[C@@H](C)CC)[C@@H](C)O)C(=O)N[C@@H](Cc1ccccc1)C(=O)N[C@@H](Cc1ccccc1)C(=O)N[C@@H](CC(N)=O)C(=O)N[C@@H](Cc1ccccc1)C(=O)N[C@@H](Cc1ccccc1)C(=O)N[C@@H](CCCCN)C(=O)N[C@@H](CCCNC(=N)N)C(=O)N[C@@H](CCCNC(=N)N)C(=O)O` [S. mitis-CSP-2-h6] (H-EIRQT[dH]NIFFNFFKRR-OH; N-terminus and C-terminus assumed) showed a pEC50 of less than 6.00.
The same measure, in the same setting: the value for `CC[C@H](C)[C@H](NC(=O)[C@@H](N)CCC(=O)O)C(=O)N[C@@H](CCCNC(=N)N)C(=O)N[C@@H](CCC(N)=O)C(=O)N[C@H](C(=O)N[C@@H](Cc1c[nH]cn1)C(=O)N[C@H](CC(N)=O)C(=O)N[C@H](C(=O)N[C@@H](Cc1ccccc1)C(=O)N[C@@H](Cc1ccccc1)C(=O)N[C@@H](CC(N)=O)C(=O)N[C@@H](Cc1ccccc1)C(=O)N[C@@H](Cc1ccccc1)C(=O)N[C@@H](CCCCN)C(=O)N[C@@H](CCCNC(=N)N)C(=O)N[C@@H](CCCNC(=N)N)C(=O)O)[C@@H](C)CC)[C@@H](C)O` [S. mitis-CSP-2-n7] (H-EIRQTH[dN]IFFNFFKRR-OH; N-terminus and C-terminus assumed) was less than 6.00; that for `CC[C@H](C)[C@H](NC(=O)[C@H](CC(N)=O)NC(=O)[C@H](Cc1c[nH]cn1)NC(=O)[C@@H](NC(=O)[C@@H](CCC(N)=O)NC(=O)[C@H](CCCNC(=N)N)NC(=O)[C@@H](NC(=O)[C@@H](N)CCC(=O)O)[C@@H](C)CC)[C@@H](C)O)C(=O)N[C@@H](Cc1ccccc1)C(=O)N[C@@H](Cc1ccccc1)C(=O)N[C@@H](CC(N)=O)C(=O)N[C@@H](Cc1ccccc1)C(=O)N[C@@H](Cc1ccccc1)C(=O)N[C@@H](CCCCN)C(=O)N[C@@H](CCCNC(=N)N)C(=O)N[C@@H](CCCNC(=N)N)C(=O)O` [S. mitis-CSP-2-q4] (H-EIR[dQ]THNIFFNFFKRR-OH; N-terminus and C-terminus assumed) was less than 6.00.
The same measure, in the same setting: the value for `CC[C@H](C)[C@H](NC(=O)[C@H](CC(N)=O)NC(=O)[C@H](Cc1c[nH]cn1)NC(=O)[C@H](NC(=O)[C@H](CCC(N)=O)NC(=O)[C@H](CCCNC(=N)N)NC(=O)[C@@H](NC(=O)[C@@H](N)CCC(=O)O)[C@@H](C)CC)[C@H](C)O)C(=O)N[C@@H](Cc1ccccc1)C(=O)N[C@@H](Cc1ccccc1)C(=O)N[C@@H](CC(N)=O)C(=O)N[C@@H](Cc1ccccc1)C(=O)N[C@@H](Cc1ccccc1)C(=O)N[C@@H](CCCCN)C(=O)N[C@@H](CCCNC(=N)N)C(=O)N[C@@H](CCCNC(=N)N)C(=O)O` [S. mitis-CSP-2-t5] (H-EIRQ[dT]HNIFFNFFKRR-OH; N-terminus and C-terminus assumed) was less than 6.00.
Regarding “AIRQTHNIFFNAFKRR [S. mitis-CSP-2-E1AF12A]”, the pIC50 on S. mitis ComD-2 receptor [1] is less than 6.00.
Molecule “AIRQTHNIFFNFAKRR [S. mitis-CSP-2-E1AF13A]” gave a pIC50 at S. mitis ComD-2 receptor [1] of less than 6.00.
As for EIRQTANIFFNFFKRR [S. mitis-CSP-2-H6A], the pEC50 on S. mitis ComD-2 receptor [2] was less than 6.00.
The same measure, in the same setting: as for EIRQTHNIAFNFFKRR [S. mitis-CSP-2-F9A], the figure is less than 6.00.
As for “EIRQTHNIFFNFF [S. mitis-CSP-2-des-K14R15R16, truncated analog of S. mitis-CSP-2]”, the “ComD-2 activation: EC50 not determined due to the analog's low induction in primary agonism screening assay” value at S. mitis ComD-2 receptor [2] (initial screening at 10,000 nM peptide) is recorded as “complete loss of activity”.
Take “EMRLTHFIFFNFFKRR [S. mitis-CSP-2-I2MQ4LN7F]”: the pEC50 in test [3] is 7.12; in test [4], 6.86; at S. mitis ComD-2 receptor [2], less than 6.00.
Turning to “EMRLTHNFFFNFFKRR [S. mitis-CSP-2-I2MQ4LI8F, S. mitis-CSP-2-based pneumococcal QS modulator from previous study]”, the negative logarithm of the EC50 (pEC50) in test [3] was 7.52; in test [4], 7.38.
Regarding “EMRLTHNIFFFFFKRR [S. mitis-CSP-2-I2MQ4LN11F]”, the negative logarithm of the EC50 (pEC50) was 6.73 in test [3], 7.83 in test [4] and less than 6.00 at S. mitis ComD-2 receptor [2].
Consider “EMRQTHFFFFNFFKRR [S. mitis-CSP-2-I2MN7FI8F]”, for which the figures for the negative logarithm of the EC50 (pEC50) (in test [3]; in test [4]; on S. mitis ComD-2 receptor [2]) were 7.87, 7.20 and less than 6.00, respectively.
As to “EMRQTHFIFFNLFKRR [S. mitis-CSP-2-I2MN7FF12L]”, the values for the pEC50 (in test [3]; in test [4]; at S. mitis ComD-2 receptor [2]) were 6.95, 7.14 and less than 6.00, respectively.
On to “EMRQTHIFFFNFFKRR [S. mitis-CSP-2-I2MN7II8F]”, for which the figures for the pEC50 (in test [3]; in test [4]; at S. mitis ComD-2 receptor [2]) were 8.57, 7.21 and less than 6.00, respectively.
On to “EMRQTHNFFFFFFKRR [S. mitis-CSP-2-I2MI8FN11F, S. mitis-CSP-2-based pneumococcal QS modulator from previous study]”, for which the negative logarithm of the EC50 (pEC50) in test [3] was 7.58; in test [4], 8.16.
As to “EMRQTHNFFFNFFKRR [S. mitis-CSP-2-I2MI8F, S. mitis-CSP-2-based pneumococcal QS modulator from previous study]”, the pEC50 in test [3] was 7.08; in test [4] it was 6.82.
